Data from PubChem BioAssay AID330 (DTP/NCI, 2004).
Several values for one entry are separate records, joined by “and”; a condition that tells them apart may be missing. Identical values can stand only once. Inconclusive results and toxic doses are left out.

Test system: P388 leukemia ip, CD2F1 mice, survival T/C
Test: NCI In Vivo Anticancer Drug Screen. Data for tumor model P388 Leukemia (intraperitoneal) in CD2F1 (CDF1) mice
Details: endpoint: median survival time, higher = longer survival
Summary of the method: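 Mice carrying the transplanted tumor received test compound or vehicle. Survival was recorded in each group, and the value is the treated-group measurement divided by that of the vehicle-treated control group.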

With `COc1cc(NCc2ccc3nc(N)nc(N)c3c2C)cc(OC)c1OC` the T/C (dose: 1.56 mg/kg/injection, schedule: Q01DX009 (ip), vehicle: Klucel (hydroxypropylcellulose) (HPC)) was 112 % of control, the T/C (dose: 1.56 mg/kg/injection, schedule: Q01DX009 (ip), vehicle: clinical formulation) was 111 % of control and the T/C (dose: 1.88 mg/kg/injection, schedule: Q01DX005 (ip), vehicle: Klucel (hydroxypropylcellulose) (HPC)) was 121 % of control. The T/C (dose: 1.88 mg/kg/injection, schedule: Q01DX005 (ip), vehicle: clinical formulation) was 102 % of control, the T/C (dose: 1.88 mg/kg/injection, schedule: Q01DX005 (iv), vehicle: clinical formulation) was 102 % of control and the T/C (dose: 2.1 mg/kg/injection, schedule: Q01DX009 (ip), vehicle: water) was 116 % of control. For the same molecule, the T/C (dose: 2.5 mg/kg/injection, schedule: Q01DX009 (ip), vehicle: sodium bicarbonate) was 124 % of control, the T/C (dose: 2.52 mg/kg/injection, schedule: Q01DX005 (iv), vehicle: water) was 103 % of control and the T/C (dose: 3.12 mg/kg/injection, schedule: Q01DX009 (ip), vehicle: Klucel (hydroxypropylcellulose) (HPC)) was 124 % of control. The T/C (dose: 3.12 mg/kg/injection, schedule: Q01DX009 (ip), vehicle: clinical formulation) was 109 % of control, the T/C (dose: 3.75 mg/kg/injection, schedule: Q01DX005 (ip), vehicle: Klucel (hydroxypropylcellulose) (HPC)) was 124 % of control and the T/C (dose: 3.75 mg/kg/injection, schedule: Q01DX005 (ip), vehicle: clinical formulation) was 100 % of control. For the same molecule, the T/C (dose: 3.75 mg/kg/injection, schedule: Q01DX005 (iv), vehicle: clinical formulation) was 103 % of control, the T/C (dose: 4.19 mg/kg/injection, schedule: Q01DX009 (ip), vehicle: water) was 120 % of control and the T/C (dose: 5.0 mg/kg/injection, schedule: Q01DX009 (ip), vehicle: sodium bicarbonate) was 154 % of control. For the same molecule, the T/C (dose: 5.03 mg/kg/injection, schedule: Q01DX005 (iv), vehicle: water) was 101 % of control, the T/C (dose: 6.25 mg/kg/injection, schedule: Q01DX009 (ip), vehicle: clinical formulation) was 109 % of control and the T/C (dose: 7.2 mg/kg/injection, schedule: Q01DX009 (ip), vehicle: Klucel (hydroxypropylcellulose) (HPC)) was 154 % of control. For the same molecule, the T/C (dose: 7.5 mg/kg/injection, schedule: Q01DX005 (ip), vehicle: clinical formulation) was 100 % of control, the T/C (dose: 7.5 mg/kg/injection, schedule: Q01DX005 (ip), vehicle: water) was 123 % of control and the T/C (dose: 7.5 mg/kg/injection, schedule: Q01DX005 (iv), vehicle: clinical formulation) was 106 % of control. The T/C (dose: 7.5 mg/kg/injection, schedule: Q01DX005 (iv), vehicle: water) was 117 % of control, the T/C (dose: 7.5 mg/kg/injection, schedule: Q03HX008 (ip), vehicle: water) was 124 % of control and the T/C (dose: 7.5 mg/kg/injection, schedule: Q03HX024 (ip), vehicle: water) was 184 % of control. For the same molecule, the T/C (dose: 8.64 mg/kg/injection, schedule: Q01DX009 (ip), vehicle: Klucel (hydroxypropylcellulose) (HPC)) was 157 % of control, the T/C (dose: 10.0 mg/kg/injection, schedule: Q01DX005 (ip), vehicle: Klucel (hydroxypropylcellulose) (HPC)) was 171 % of control and the T/C (dose: 10.0 mg/kg/injection, schedule: Q01DX009 (ip), vehicle: sodium bicarbonate) was 171 % of control and 174 % of control. For the same molecule, the T/C (dose: 10.1 mg/kg/injection, schedule: Q01DX005 (iv), vehicle: water) was 106 % of control, the T/C (dose: 12.0 mg/kg/injection, schedule: Q01DX009 (ip), vehicle: Klucel (hydroxypropylcellulose) (HPC)) was 173 % of control and the T/C (dose: 12.0 mg/kg/injection, schedule: Q03HX006 (ip), vehicle: Klucel (hydroxypropylcellulose) (HPC)) was 150 % of control. The T/C (dose: 12.5 mg/kg/injection, schedule: Q01DX009 (ip), vehicle: Klucel (hydroxypropylcellulose) (HPC)) was 172 % of control, the T/C (dose: 12.5 mg/kg/injection, schedule: Q01DX009 (ip), vehicle: clinical formulation) was 111 % of control and the T/C (dose: 12.5 mg/kg/injection, schedule: Q01DX009 (oral), vehicle: sodium bicarbonate) was 110 % of control and 111 % of control. The T/C (dose: 12.5 mg/kg/injection, schedule: Q04DX003 (ip), vehicle: Klucel (hydroxypropylcellulose) (HPC)) was 180 % of control, the T/C (dose: 13.0 mg/kg/injection, schedule: Q04DX002 (ip), vehicle: Klucel (hydroxypropylcellulose) (HPC)) was 120 % of control and the T/C (dose: 14.4 mg/kg/injection, schedule: Q01DX009 (ip), vehicle: Klucel (hydroxypropylcellulose) (HPC)) was 175 % of control. For the same molecule, the T/C (dose: 15.0 mg/kg/injection, schedule: Q01DX005 (ip), vehicle: Klucel (hydroxypropylcellulose) (HPC)) was 152 % of control, the T/C (dose: 15.0 mg/kg/injection, schedule: Q01DX005 (ip), vehicle: clinical formulation) was 103 % of control and the T/C (dose: 15.0 mg/kg/injection, schedule: Q01DX005 (iv), vehicle: clinical formulation) was 102 % of control. For the same molecule, the T/C (dose: 15.0 mg/kg/injection, schedule: Q01DX005 (oral), vehicle: water) was 112 % of control, the T/C (dose: 15.0 mg/kg/injection, schedule: Q01DX009 (ip), vehicle: water) was 153 % of control and the T/C (dose: 16.8 mg/kg/injection, schedule: Q01DX009 (ip), vehicle: water) was 170 % of control. The T/C (dose: 20.0 mg/kg/injection, schedule: Q01DX005 (ip), vehicle: Klucel (hydroxypropylcellulose) (HPC)) was 202 % of control, the T/C (dose: 20.0 mg/kg/injection, schedule: Q01DX009 (ip), vehicle: Klucel (hydroxypropylcellulose) (HPC)) was 207 % of control and the T/C (dose: 20.0 mg/kg/injection, schedule: Q01DX009 (ip), vehicle: sodium bicarbonate) was 174 % of control and 222 % of control. For the same molecule, the T/C (dose: 20.0 mg/kg/injection, schedule: Q03HX006 (ip), vehicle: Klucel (hydroxypropylcellulose) (HPC)) was 154 % of control, the T/C (dose: 20.1 mg/kg/injection, schedule: Q01DX005 (iv), vehicle: water) was 120 % of control and the T/C (dose: 21.6 mg/kg/injection, schedule: Q01DX005 (ip), vehicle: Klucel (hydroxypropylcellulose) (HPC)) was 152 % of control. The T/C (dose: 24.0 mg/kg/injection, schedule: Q01DX009 (ip), vehicle: Klucel (hydroxypropylcellulose) (HPC)) was 181 % of control, the T/C (dose: 25.0 mg/kg/injection, schedule: Q01DX009 (ip), vehicle: Klucel (hydroxypropylcellulose) (HPC)) was 200 % of control and the T/C (dose: 25.0 mg/kg/injection, schedule: Q01DX009 (ip), vehicle: clinical formulation) was 109 % of control. The T/C (dose: 25.0 mg/kg/injection, schedule: Q01DX009 (oral), vehicle: sodium bicarbonate) was 112 % of control, the T/C (dose: 25.0 mg/kg/injection, schedule: Q04DX003 (ip), vehicle: Klucel (hydroxypropylcellulose) (HPC)) was 192 % of control and the T/C (dose: 30.0 mg/kg/injection, schedule: Q01DX001 (ip), vehicle: water) was 108 % of control. For the same molecule, the T/C (dose: 30.0 mg/kg/injection, schedule: Q01DX001 (iv), vehicle: water) was 111 % of control, the T/C (dose: 30.0 mg/kg/injection, schedule: Q01DX005 (ip), vehicle: Klucel (hydroxypropylcellulose) (HPC)) was 189 % of control and the T/C (dose: 30.0 mg/kg/injection, schedule: Q01DX005 (ip), vehicle: clinical formulation) was 100 % of control. The T/C (dose: 30.0 mg/kg/injection, schedule: Q01DX005 (iv), vehicle: clinical formulation) was 105 % of control, the T/C (dose: 30.0 mg/kg/injection, schedule: Q01DX009 (ip), vehicle: water) was 170 % of control and the T/C (dose: 30.0 mg/kg/injection, schedule: Q01DX009 (oral), vehicle: water) was 161 % of control. The T/C (dose: 30.0 mg/kg/injection, schedule: Q04DX003 (ip), vehicle: water) was 123 % of control, the T/C (dose: 33.3 mg/kg/injection, schedule: Q01DX009 (ip), vehicle: Klucel (hydroxypropylcellulose) (HPC)) was 218 % of control and the T/C (dose: 33.3 mg/kg/injection, schedule: Q03HX006 (ip), vehicle: Klucel (hydroxypropylcellulose) (HPC)) was 159 % of control. For the same molecule, the T/C (dose: 33.6 mg/kg/injection, schedule: Q01DX009 (ip), vehicle: water) was 175 % of control, the T/C (dose: 36.0 mg/kg/injection, schedule: Q01DX005 (ip), vehicle: Klucel (hydroxypropylcellulose) (HPC)) was 195 % of control and the T/C (dose: 40.0 mg/kg/injection, schedule: Q01DX005 (ip), vehicle: Klucel (hydroxypropylcellulose) (HPC)) was 240 % of control. The T/C (dose: 40.0 mg/kg/injection, schedule: Q01DX009 (ip), vehicle: Klucel (hydroxypropylcellulose) (HPC)) was 102 % of control, the T/C (dose: 40.0 mg/kg/injection, schedule: Q01DX009 (ip), vehicle: sodium bicarbonate) was 242 % of control and 91 % of control and the T/C (dose: 50.0 mg/kg/injection, schedule: Q01DX009 (ip), vehicle: Klucel (hydroxypropylcellulose) (HPC)) was 225 % of control. The T/C (dose: 50.0 mg/kg/injection, schedule: Q01DX009 (ip), vehicle: clinical formulation) was 118 % of control, the T/C (dose: 50.0 mg/kg/injection, schedule: Q01DX009 (oral), vehicle: sodium bicarbonate) was 191 % of control and the T/C (dose: 50.0 mg/kg/injection, schedule: Q04DX003 (ip), vehicle: Klucel (hydroxypropylcellulose) (HPC)) was 201 % of control. For the same molecule, the T/C (dose: 60.0 mg/kg/injection, schedule: Q01DX001 (ip), vehicle: water) was 104 % of control, the T/C (dose: 60.0 mg/kg/injection, schedule: Q01DX001 (iv), vehicle: water) was 113 % of control and the T/C (dose: 60.0 mg/kg/injection, schedule: Q01DX001 (oral), vehicle: water) was 120 % of control. The T/C (dose: 60.0 mg/kg/injection, schedule: Q01DX005 (ip), vehicle: Klucel (hydroxypropylcellulose) (HPC)) was 176 % of control and 198 % of control, the T/C (dose: 60.0 mg/kg/injection, schedule: Q01DX005 (ip), vehicle: clinical formulation) was 100 % of control and the T/C (dose: 60.0 mg/kg/injection, schedule: Q01DX005 (oral), vehicle: water) was 153 % of control. The T/C (dose: 60.0 mg/kg/injection, schedule: Q01DX009 (ip), vehicle: water) was 170 % of control, the T/C (dose: 60.0 mg/kg/injection, schedule: Q03HX008 (ip), vehicle: water) was 120 % of control and the T/C (dose: 60.0 mg/kg/injection, schedule: Q03HX024 (ip), vehicle: water) was 115 % of control. For the same molecule, the T/C (dose: 60.0 mg/kg/injection, schedule: Q04DX002 (ip), vehicle: Klucel (hydroxypropylcellulose) (HPC)) was 151 % of control, the T/C (dose: 60.0 mg/kg/injection, schedule: Q04DX003 (ip), vehicle: water) was 115 % of control and the T/C (dose: 80.0 mg/kg/injection, schedule: Q01DX005 (ip), vehicle: Klucel (hydroxypropylcellulose) (HPC)) was 96 % of control. For the same molecule, the T/C (dose: 100.0 mg/kg/injection, schedule: Q01DX005 (ip), vehicle: Klucel (hydroxypropylcellulose) (HPC)) was 116 % of control, the T/C (dose: 100.0 mg/kg/injection, schedule: Q01DX009 (oral), vehicle: sodium bicarbonate) was 94 % of control and the T/C (dose: 100.0 mg/kg/injection, schedule: Q04DX002 (ip), vehicle: Klucel (hydroxypropylcellulose) (HPC)) was 211 % of control. The T/C (dose: 100.0 mg/kg/injection, schedule: Q04DX003 (ip), vehicle: Klucel (hydroxypropylcellulose) (HPC)) was 230 % of control, the T/C (dose: 120.0 mg/kg/injection, schedule: Q01DX001 (ip), vehicle: water) was 106 % of control and the T/C (dose: 120.0 mg/kg/injection, schedule: Q01DX001 (oral), vehicle: water) was 115 % of control. The T/C (dose: 120.0 mg/kg/injection, schedule: Q01DX005 (oral), vehicle: water) was 170 % of control, the T/C (dose: 120.0 mg/kg/injection, schedule: Q04DX003 (ip), vehicle: water) was 118 % of control and the T/C (dose: 200.0 mg/kg/injection, schedule: Q04DX003 (ip), vehicle: Klucel (hydroxypropylcellulose) (HPC)) was 103 % of control. The T/C (dose: 240.0 mg/kg/injection, schedule: Q01DX001 (oral), vehicle: water) was 124 % of control and the T/C (dose: 480.0 mg/kg/injection, schedule: Q01DX001 (oral), vehicle: water) was 157 % of control.
